Test results from patent US20210330611A1, “THERAPY FOR NEUROLOGICAL DISEASES/DISORDERS” (priority 2020, published 2021).
Counter-ions that a name gives are not always drawn. Like-named read-outs stand apart in the source and are kept apart here.

Experiments:
[1] = system: fibrin- and LPS-induced microglia activation; experiment: cells; type: cell-based, rat
primary rat microglia [2] = system: primary rat microglia;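 as to Fibrin % cell toxicity: share of dead cells sized under 150 µm2 at 10 µM in fibrin-stimulated microglia HTS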
primary rat microglia [3] = system: primary rat microglia; remark: listed apart in the source;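 as to Fibrin % cell toxicity: share of dead cells sized under 150 µm2 at 10 µM in fibrin-stimulated microglia HTS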
[4] = system: fibrin-induced microglia activation; experiment: Image-based assay of fibrin-induced microglia activation (HTS and dose response); type: cell-based, rat; details: for inhibition at 10 µM: Rattus norvegicus, Microglia, read-out: Fibrin % inhibition
[5] = system: LPS-induced microglia activation; experiment: Image-based assay of LPS-induced microglia activation (HTS and dose response); type: cell-based, rat
[6] = Rattus norvegicus, Microglia, 48 h, read-out: LPS % inhibition
[7] = Rattus norvegicus, Microglia, read-out: LPS % inhibition
[8] = primary microglia HTS, fibrin stimulation, compounds at 10 μM
[9] = Rattus norvegicus, Microglia, primary microglia HTS, LPS stimulation, compounds at 10 μM; read-out: LPS % inhibition
[10] = quadrant by fibrin and LPS inhibition in HTS of 1907 compounds
[11] = primary microglia HTS, fibrin stimulation, increased cell size (>800 μm^2) as marker of activation
[12] = Rattus norvegicus, Microglia, 48 h, primary microglia HTS, LPS stimulation; increased cell size (>800 μm^2) as marker of activation; read-out: LPS % inhibition
[13] = primary HTS, 10 μM, fibrin-stimulated primary microglia
[14] = Rattus norvegicus, Microglia, primary HTS, 10 μM, LPS-stimulated primary microglia; read-out: LPS % inhibition
[15] = classification by fibrin and LPS inhibition, HTS at 10 μM

| SMILES | Quadrant (FIG. 5b) [1] | LPS % cell toxicity (primary rat microglia [2]; rat) | Fibrin % cell toxicity (primary rat microglia [3]; rat) | inhibition at 10 µM [4] | inhibition at 10 µM [5, 7] | further results |
| --- | --- | --- | --- | --- | --- | --- |
| OCCN1CCN(CCCN2c3ccccc3Sc3ccc(C(F)(F)F)cc32)CC1 [Fluphenazine] | Q4 | 0% | 1% | 7% |  | inhibition at 10 µM [5, 6]: 20% |
| Oc1ccc2ccccc2c1 [Beta-naphthol] | Q4 | 0% | 0% | -17% | 15% |  |
| N[C@@H]1C[C@H]1c1ccccc1.N[C@H]1C[C@@H]1c1ccccc1.O=S(=O)(O)O [Tranylcypromine Sulfate] | Q4 |  |  |  |  | LPS % cell toxicity (primary rat microglia [2]): 0%; Fibrin % cell toxicity (primary rat microglia [3]): 0%; Fibrin % inhibition ([4]; 10 µM): 3%; LPS % inhibition ([5]; 10 µM): 17% |
| CN/C(=N/CCSCc1nc[nH]c1C)NC#N [Cimetidine] | Q4 | 1% | 0% | -1% | 22% |  |
| COc1cc(Cc2cnc(N)nc2N)cc(OC)c1OC [Trimethoprim] | Q4 | 0% | 0% | -26% | 17% |  |
| Cn1cc[nH]c1=S [Methimazole] | Q4 | 0% | 0% | -29% |  | inhibition at 10 µM [5, 6]: 12% |
| CN(C)C(=N)N=C(N)N [Metformin] | Q4 | 0% | 0% | -15% |  | inhibition at 10 µM [5, 6]: 0% |
| CO[C@H]1C[C@@H]2CC[C@@H](C)[C@@](O)(O2)C(=O)C(=O)N2CCCC[C@H]2C(=O)O[C@H]([C@H](C)C[C@@H]2CC[C@@H](O)[C@H](OC)C2)CC(=O)[C@H](C)/C=C(\C)[C@@H](O)[C@@H](OC)C(=O)[C@H](C)C[C@H](C)/C=C/C=C/C=C/1C [Sirolimus] |  | 1% | 4% |  |  | Quadrant (FIG. 5b) ([1]; quadrant by fibrin and LPS inhibition, HTS at 10 μM): Q2; inhibition at 10 µM [4, 8]: 108%; inhibition at 10 µM [5, 9]: 81% |
| NNCCc1ccccc1 [Phenelzine] | Q4 | 0% | 1% | 2% |  | inhibition at 10 µM [5, 6]: -4% |
| O=C(C1CCCCC1)N1CC(=O)N2CCc3ccccc3C2C1 (stereo not shown) [Praziquantel] |  | 0% | 1% |  |  | Quadrant (FIG. 5b) ([1]; classification by fibrin and LPS inhibition in HTS): Q4; inhibition at 10 µM ([4]; primary microglia HTS, fibrin stimulation, cell size >800 μm2 as marker of activation): -3%; inhibition at 10 µM ([5]; Rattus norvegicus, Microglia, 48 h; read-out: LPS % inhibition): 21% |
| N[C@@H](Cc1ccc(N(CCCl)CCCl)cc1)C(=O)O [Melphalan] |  | 0% | 0% |  |  | Quadrant (FIG. 5b) [1, 10]: Q4; inhibition at 10 µM [4, 11]: 28%; inhibition at 10 µM [5, 12]: 3% |
| NCCc1ccc(O)c(O)c1 [Dopamine] | Q4 | 0% | 1% | -17% | 9% |  |
| CCOC(=O)[C@H](CCc1ccccc1)N[C@@H](C)C(=O)N1[C@H](C(=O)O)C[C@H]2CCCC[C@@H]21 [Trandolapril] | Q4 | 0% | 1% | -5% | 15% |  |
| O=C(OCc1ccccc1)c1ccccc1 [Benzyl Benzoate] |  | 1% | 1% |  |  | Quadrant (FIG. 5b) ([1]; primary HTS, 10 μM): Q4; inhibition at 10 µM [4, 13]: 35%; inhibition at 10 µM [5, 14]: 32% |
| C[N+](C)(C)CC(=O)O [Trimethyl Glycine] | Q4 |  |  |  |  | LPS % cell toxicity (primary rat microglia [2]): 0%; Fibrin % cell toxicity (primary rat microglia [3]): 0%; Fibrin % inhibition ([4]; 10 µM): −14%; LPS % inhibition ([5]; 10 µM): 22% |
| O=c1cccc2n1C[C@@H]1CNC[C@H]2C1 [Cytisine] | Q4 | 1% | 1% | 23% | 16% |  |
| OC(CNCC(O)C1CCc2cc(F)ccc2O1)C1CCc2cc(F)ccc2O1 (stereo not shown) [Nebivolol] |  | 0% | 1% |  |  | Quadrant (FIG. 5b) [1, 10]: Q4; inhibition at 10 µM [4, 11]: -10%; inhibition at 10 µM [5, 12]: 6% |
| COc1ccc(Cc2cnc(N)nc2N)cc1OC [Diaveridine] |  | 1% | 1% |  |  | Quadrant (FIG. 5b) [1, 15]: Q4; inhibition at 10 µM [4, 8]: -8%; inhibition at 10 µM [5, 9]: 13% |
| CC(C)Cc1ccc([C@H](C)C(=O)O)cc1 [Dexibuprofen] |  | 0% | 1% |  |  | Quadrant (FIG. 5b) [1, 15]: Q4; inhibition at 10 µM [4, 8]: -3%; inhibition at 10 µM [5, 9]: 13% |
| NC[C@H]1CC[C@H](C(=O)O)CC1 [Tranexamic Acid] | Q4 | 0% | 1% | -4% | 13% |  |
| CC=CC(=O)N(CC)c1ccccc1C [Crotamiton] |  |  |  |  |  | Quadrant (FIG. 5b) [1, 15]: Q4; LPS % cell toxicity (primary rat microglia [2]): 0%; Fibrin % cell toxicity (primary rat microglia [3]): 0%; Fibrin % inhibition [4, 8]: 12%; LPS % inhibition ([5]; primary microglia HTS, LPS stimulation, compounds at 10 μM): 3% |
| CC(C)(C)NCC(O)c1cc(Cl)c(N)c(Cl)c1 (stereo not shown) [Clenbuterol] |  | 0% | 1% |  |  | Quadrant (FIG. 5b) ([1]; primary HTS, 10 μM): Q4; inhibition at 10 µM [4, 13]: 11%; inhibition at 10 µM [5, 14]: 25% |
| CN[C@H](CC(C)C)C(=O)N[C@H]1C(=O)N[C@@H](CC(N)=O)C(=O)N[C@H]2C(=O)N[C@H]3C(=O)N[C@H](C(=O)N[C@H](C(=O)O)c4cc(O)cc(O)c4-c4cc3ccc4O)[C@H](O)c3ccc(c(Cl)c3)Oc3cc2cc(c3O[C@@H]2O[C@H](CO)[C@@H](O)[C@H](O)[C@H]2O[C@H]2C[C@](C)(N)[C@H](O)[C@H](C)O2)Oc2ccc(cc2Cl)[C@H]1O [Vancomycin Hydrochloride] | Q4 | 0% | 1% |  |  | Fibrin % inhibition ([4]; 10 µM): −20%; LPS % inhibition ([5]; 10 µM): 9% |
